# pIC50: −log10 of the molar value. Marks after values point to notes of the source that are not given here.
# Test system: AAMU-Ab
# Assay: Competitive antigen ELISA, cross-reactivity of AAMU-Ab
# Assay type: binding, rabbit
# Conditions: 0 = absence of inhibition or inhibition no higher than 40% at the highest concentration tested (5×10^−3 M)
# Procedure: (§1) Buffers and water without additives are filtered through millipore filters and kept for 1 week. BSA, antibodies, Tween™ 20 and horse radish peroxidase conjugates are added to these buffers and water just prior to use. Urine samples are usually collected 4 hours after drinking a cup of coffee (instant or brewed with approximately 100 mg of caffeine per cup) and stored at −80° C. The urine samples are diluted 10 times with sodium phosphate buffer (620 mosm, pH 7.50) and are subsequently diluted with water to give concentrations of AAMU and 1X no higher than 3×10^−6 M in the ELISA. All the pipettings are done with an eight-channel pipette, except those of the antibody and sample solutions. Starting with the last well, 100 μL of a carbonate buffer (100 mM, pH 9.6) containing 2.5 μg mL-1 antibodies are added to each well. After 90 min. at room temperature, the wells are washed three times with […] of TPB: isotonic sodium phosphate buffer (310 mosm, pH 7.50) containing 0.05% Tween™ 20.
# (§2) After the initial wash, unoccupied sites are blocked by incubation for 90 min. at room temperature with 100 μL TBP containing 3% BSA. The wells are washed four times with 100 μL TPB. […] The microplate is gently shaken with an orbital shaker at room temperature for 3-4 hours. The wells are washed three times with 100 μL TPB containing 1% BSA and three times with water containing 0.05% Tween ™ 20. To the washed plate is added 150 μL of a substrate buffer composed of citric acid (25 mM) and sodium phosphate dibasic buffer (50 mM, pH 5.0) containing 0.06% hydrogen peroxide and 0.04% o-phenylenediamine hydrochloride.
# (§3) Buffers and water without additives were filtered through millipore filters and kept for 1 week. BSA, antibodies, Tween ™ 20 and horse radish peroxidase conjugates were added to these buffers and water just prior to use. Urine samples were usually collected 4 hours after drinking a cup of coffee (instant or brewed with approximately 100 mg of caffeine per cup) and stored at 80° C. They were diluted 10 times with sodium phosphate buffer (620 mosm, pH 7.50) and were subsequently diluted with water to give concentrations of AAMU and 1X no higher than 3×10^−6 M in the ELISA. All the pipettings were done with an eight-channel pipette, except those of the antibody and sample solutions. Starting with the last well, 100 μL of a carbonate buffer (100 mM, pH 9.6) containing 2.5 μg mL^−1 antibodies was pipetted. After 90 min. at room temperature, the wells were washed three times with 100 μL of TPB: isotonic sodium phosphate buffer (310 mosm, pH 7.50) containing 0.05% Tween™ 20.
# (§4) After the initial wash, unoccupied sites were blocked by incubation for 90 min. at room temperature with 100 μL TBP containing 3% BSA. The wells were washed four times with 100 μL TPB. […] The microplate was gently shaken with an orbital shaker at room temperature for 3-4 hours. The wells were washed three times with 100 μL with TPB containing 1% BSA and three times with water containing 0.05% Tween™ 20. To the washed plate was added 150 μL of a substrate buffer composed of citric acid (25 mM) and sodium phosphate dibasic buffer (50 mM, pH 5.0) containing 0.06% hydrogen peroxide and 0.04% o-phenylenediamine hydrochloride. After 20 min. at room temperature with shaking, the reaction was stopped with 50 μL of 2.5 N HCl.
# (§5) The cross reactivities of AAMU-Ab and 1X-Ab were tested using a wide variety of caffeine metabolites and structural analogs (Table 5 below).
row,Structure (SMILES),% Cross-Reaction AAMU-Ab
1,O=c1[nH]cnc2nc[nH]c12 [Hypoxanthine],0%
2,"Cn1c(=O)c2[nH]cnc2n(C)c1=O [1,3-Dimethyl Xanthine (Theophylline), 1,3-Dimethyl Xanthine]",0%
3,"CC(=O)Nc1c(N)n(C)c(=O)n(C)c1=O [5-Acetamino-6-amino-1,3-dimethyluracil]",0%
4,CC(=O)Nc1c(N)[nH]c(=O)[nH]c1=O [5-Acetamino-6-amino-uracil],0.6%
5,"Cn1cnc2c1c(=O)[nH]c(=O)n2C [3,7-Dimethyl Xanthine (Theobromine), 3,7-Dimethyl Xanthine]",0%
6,"Cn1c(=O)c2c(ncn2C)n(C)c1=O [1,3,7-Trimethyl Xanthine (Caffeine), 1,3,7-Trimethyl Xanthine]",0%
7,"Cn1c(=O)[nH]c2nc[nH]c2c1=O [1-Methyl Xanthine (1X), 1-Methyl Xanthine]",0%
8,"Cn1c(=O)[nH]c2ncn(C)c2c1=O [1,7-Dimethyl Xanthine (Paraxanthine), 1,7-Dimethyl Xanthine]",0%
9,Cc1nc2[nH]c(=O)[nH]c(=O)c2[nH]1 [8-Methyl Xanthine],0%
10,"Cn1c(=O)[nH]c2[nH]c(=O)n(C)c2c1=O [1,7-Dimethyluric acid]",0%

# Test system: 1X-Ab
# Assay: Competitive antigen ELISA, cross-reactivity of 1X-Ab
# Assay type: binding, rabbit
# Conditions: 0 = absence of inhibition or inhibition no higher than 40% at the highest concentration tested (5×10^−3 M)
# Procedure: as §1, §2, §3, §4, §5
row,Structure (SMILES),% Cross-Reaction 1X-Ab
1,O=c1[nH]cnc2nc[nH]c12 [Hypoxanthine],0%
2,"Cn1c(=O)c2[nH]cnc2n(C)c1=O [1,3-Dimethyl Xanthine (Theophylline), 1,3-Dimethyl Xanthine]",0.2%
3,"CC(=O)Nc1c(N)n(C)c(=O)n(C)c1=O [5-Acetamino-6-amino-1,3-dimethyluracil]",0%
4,CC(=O)Nc1c(N)[nH]c(=O)[nH]c1=O [5-Acetamino-6-amino-uracil],0%
5,"Cn1cnc2c1c(=O)[nH]c(=O)n2C [3,7-Dimethyl Xanthine (Theobromine), 3,7-Dimethyl Xanthine]",0%
6,"Cn1c(=O)c2c(ncn2C)n(C)c1=O [1,3,7-Trimethyl Xanthine (Caffeine), 1,3,7-Trimethyl Xanthine]",0%
7,"Cn1c(=O)[nH]c2nc[nH]c2c1=O [1-Methyl Xanthine (1X), 1-Methyl Xanthine]",100%
8,"Cn1c(=O)[nH]c2ncn(C)c2c1=O [1,7-Dimethyl Xanthine (Paraxanthine), 1,7-Dimethyl Xanthine]",0.5%
9,Cc1nc2[nH]c(=O)[nH]c(=O)c2[nH]1 [8-Methyl Xanthine],0%
10,"Cn1c(=O)[nH]c2[nH]c(=O)n(C)c2c1=O [1,7-Dimethyluric acid]",0%

# Same assay, conditions: read-out: concentration required for 50% inhibition in the competitive antigen ELISA; 1X-Ab
row,Structure (SMILES),pIC50
1,"Cn1c(=O)[nH]c2nc[nH]c2c1=O [1-Methyl Xanthine (1X), 1-Methyl Xanthine]",5.00

# Test system: Caffeine-Ab
# Assay: Competitive antigen ELISA, antibody specificity of caffeine-Ab
# Assay type: binding, rabbit
# Conditions: ideal antibody specificity result hypothesized; 0 = no inhibition or no higher than 40% at 5×10^−3 M
# Procedure: (§6) BSA, antibodies, Tween™ 20 and horse radish peroxidase are added to buffers and water just prior to use. Urine samples are usually collected four hours after drinking a cup of coffee (instant or brewed with approximately 100 mg of caffeine per cup) and stored at −20° C. as 1-mL aliquots in 1.5-mL microtubes. For the ELISA, the urine samples are diluted with isotonic sodium phosphate buffer, pH 7.5 (310 mosM) to give concentrations of caffeine, 1.7-DMX and 1,7-DMU no higher than 3×10^−6 M in the microtiter plate wells. Wells of the ELISA plate are washed with a Nunc-Immuno wash 12 washer. Sixteen milliliters of a solution of 6.6 μg ml^−1 of isolated IgG antibodies is prepared in a 100 mM sodium carbonate buffer, pH 9.6, and 150 μL of this solution is pipetted in each well of a microtiter plate using a eight channel pipet (Brinkmann Transferpette™-8 50-200 μL) and 200 μL Flex tips from Brinkmann). After coating the wells with antibodies at 4° C. for 20 hours, the wells are washed 3 times with the isotonic sodium phosphate buffer containing 0.05% Tween™ 20 (IPBT) and properly drained by inverting the plate and absorbing the liquid on to a piece of paper towel. Thirty milliliters of a solution of a IPBT solution containing 1% BSA is prepared and 150 μL of this solution is pipetted in each well using a eight channel pipet (Brinkmann Transferpette ™-8 50-200 μL) and 200 μL yellow tips (Sarstedt yellow tips for P200 Gilson Pipetman). After 3 hours at room temperature, the wells are washed 3 times with IPBT solution and drained. Samples of 400 μL for determination of caffeine, 1,7-DMX and 1,7-DMU are prepared in 1.5-mL microtubes using Sarstedt yellow tips and a P200 Gilson Pipetman. Then, 200 μL of each sample are pipetted in duplicate in a Falcon 96-well microtest tissue culture plate according to the pattern shown in FIG. 22, using Sarstedt yellow tips and a P200 Gilson Pipetman. Using an eight channel pipet (Brinkmann Transferpette™-8 50-200 μL) and changing the tips of the eight channel pipet (200μL Flex tips from Brinkmann) at each row, 150 μL of samples are transferred in the corresponding wells of a 96-well ELISA microtiter plate coated with antibodies. After the addition of the samples, the microtiter plates are covered and left standing at room temperature for 2 h. While the plate is left standing the substrate buffer without the hydrogen peroxide and o-phenylenediamine hydrochloride is prepared (25 mM citric acid and 50 mM sodium phosphate dibasic buffer, pH 5.0). The microtiter plate is washed 3 times with the IPBT solution and 3 times with a 0.05% Tween™ 20 solution and drained. Then, 50 μL of hydrogen peroxide and 40 mg of o-phenylenediamine are added to the substrate buffer. One hundred fifty microliters (150 μL) of the substrate buffer solution is then added to each well using a eight channel pipet (Brinkmann Transferpette™-8 50-200 μL) and 200 μL Flex tips (Brinkmann). The microtiter plate is covered and shaken for 25-30 min at room temperature and the enzymatic reaction is stopped by adding 50 μL/well of a 2.5 N HCl solution using an eight channel pipet (Brinkmann Transferpette™-8 50-200 μL) and 200L Flex tips (Brinkmann).
row,Structure (SMILES),% Cross-reaction Caffeine-Ab
1,O=c1[nH]cnc2nc[nH]c12 [Hypoxanthine],0%
2,"Cn1c(=O)c2[nH]cnc2n(C)c1=O [1,3-Dimethyl Xanthine (Theophylline), 1,3-Dimethyl Xanthine]",0%
3,"CC(=O)Nc1c(N)n(C)c(=O)n(C)c1=O [5-Acetamino-6-amino-1,3-dimethyluracil]",0%
4,CC(=O)Nc1c(N)[nH]c(=O)[nH]c1=O [5-Acetamino-6-amino-uracil],0%
5,"Cn1cnc2c1c(=O)[nH]c(=O)n2C [3,7-Dimethyl Xanthine (Theobromine), 3,7-Dimethyl Xanthine]",0%
6,"Cn1c(=O)c2c(ncn2C)n(C)c1=O [1,3,7-Trimethyl Xanthine (Caffeine), 1,3,7-Trimethyl Xanthine]",100%
7,"Cn1c(=O)[nH]c2nc[nH]c2c1=O [1-Methyl Xanthine (1X), 1-Methyl Xanthine]",0%
8,"Cn1c(=O)[nH]c2ncn(C)c2c1=O [1,7-Dimethyl Xanthine (Paraxanthine), 1,7-Dimethyl Xanthine]",0%
9,Cc1nc2[nH]c(=O)[nH]c(=O)c2[nH]1 [8-Methyl Xanthine],0%
10,"Cn1c(=O)[nH]c2[nH]c(=O)n(C)c2c1=O [1,7-Dimethyluric acid]",0%

# Test system: 1,7-DMX-Ab
# Assay: Competitive antigen ELISA, antibody specificity of 1,7-DMX-Ab
# Assay type: binding, rabbit
# Conditions: ideal antibody specificity result hypothesized; 0 = no inhibition or no higher than 40% at 5×10^−3 M
# Procedure: as §6
row,Structure (SMILES),"% Cross-reaction 1,7-DMX-Ab"
1,O=c1[nH]cnc2nc[nH]c12 [Hypoxanthine],0%
2,"Cn1c(=O)c2[nH]cnc2n(C)c1=O [1,3-Dimethyl Xanthine (Theophylline), 1,3-Dimethyl Xanthine]",0%
3,"CC(=O)Nc1c(N)n(C)c(=O)n(C)c1=O [5-Acetamino-6-amino-1,3-dimethyluracil]",0%
4,CC(=O)Nc1c(N)[nH]c(=O)[nH]c1=O [5-Acetamino-6-amino-uracil],0%
5,"Cn1cnc2c1c(=O)[nH]c(=O)n2C [3,7-Dimethyl Xanthine (Theobromine), 3,7-Dimethyl Xanthine]",0%
6,"Cn1c(=O)c2c(ncn2C)n(C)c1=O [1,3,7-Trimethyl Xanthine (Caffeine), 1,3,7-Trimethyl Xanthine]",0^a %
7,"Cn1c(=O)[nH]c2nc[nH]c2c1=O [1-Methyl Xanthine (1X), 1-Methyl Xanthine]",0%
8,"Cn1c(=O)[nH]c2ncn(C)c2c1=O [1,7-Dimethyl Xanthine (Paraxanthine), 1,7-Dimethyl Xanthine]",100%
9,Cc1nc2[nH]c(=O)[nH]c(=O)c2[nH]1 [8-Methyl Xanthine],0%
10,"Cn1c(=O)[nH]c2[nH]c(=O)n(C)c2c1=O [1,7-Dimethyluric acid]",0%

# Test system: 1,7-DMU-Ab
# Assay: Competitive antigen ELISA, antibody specificity of 1,7-DMU-Ab
# Assay type: binding, rabbit
# Conditions: ideal antibody specificity result hypothesized; 0 = no inhibition or no higher than 40% at 5×10^−3 M
# Procedure: as §6
row,Structure (SMILES),"% Cross-reaction 1,7-DMU-Ab"
1,O=c1[nH]cnc2nc[nH]c12 [Hypoxanthine],0%
2,"Cn1c(=O)c2[nH]cnc2n(C)c1=O [1,3-Dimethyl Xanthine (Theophylline), 1,3-Dimethyl Xanthine]",0%
3,"CC(=O)Nc1c(N)n(C)c(=O)n(C)c1=O [5-Acetamino-6-amino-1,3-dimethyluracil]",0%
4,CC(=O)Nc1c(N)[nH]c(=O)[nH]c1=O [5-Acetamino-6-amino-uracil],0%
5,"Cn1cnc2c1c(=O)[nH]c(=O)n2C [3,7-Dimethyl Xanthine (Theobromine), 3,7-Dimethyl Xanthine]",0%
6,"Cn1c(=O)c2c(ncn2C)n(C)c1=O [1,3,7-Trimethyl Xanthine (Caffeine), 1,3,7-Trimethyl Xanthine]",0%
7,"Cn1c(=O)[nH]c2nc[nH]c2c1=O [1-Methyl Xanthine (1X), 1-Methyl Xanthine]",0%
8,"Cn1c(=O)[nH]c2ncn(C)c2c1=O [1,7-Dimethyl Xanthine (Paraxanthine), 1,7-Dimethyl Xanthine]",0%
9,Cc1nc2[nH]c(=O)[nH]c(=O)c2[nH]1 [8-Methyl Xanthine],0%
10,"Cn1c(=O)[nH]c2[nH]c(=O)n(C)c2c1=O [1,7-Dimethyluric acid]",100%

# Source: patent US20030091975A1, “Multiple determinants for metabolic phenotypes” (priority 2001, published 2003)
